In ChEMBL document CHEMBL5113553, “Synthesis and Bioactivity of Thiocarboxylic A and Derivatives” (J Nat Prod, 2022) one finds IC50, Activity and MIC data, which are given here for 4 molecules.

In brackets after ≈: the same amount, converted by molar mass. A value given as a limit tells only on which side of the number the result lay.

The subject of data set [1] is Escherichia coli. Nature of the data set: Antibacterial activity against Escherichia coli harboring delta tolC mutant assessed as inhibition of bacterial growth incubated for 24 hrs. It is filed as functional, organism-based.
The subject of the next data set is L929. Nature of the data set: Cytotoxicity against mouse L929 cells upto 100 uM measured after 72 hrs by alamar blue assay. It is filed as toxicity, cell-based. The note with it: l929, 72 h. On the technique in general: Alamar Blue is a resazurin reagent that responds to reducing activity.
Data set [2] concerns Escherichia coli. The data set can be described thus: Antibacterial activity against wild type Escherichia coli incubated for 24 hrs. The data set is classed as functional.
A further data set has as its system Staphylococcus aureus. The data set can be described thus: Antibacterial activity against wild type Staphylococcus aureus USA300 incubated for 24 hrs. The data set is classed as functional.
For another data set, the system named is Candida albicans. The data set can be described thus: Antifungal activity against Candida albicans assessed as fungal growth inhibition. It is filed as functional.

A word on the IC50: it is the point on the concentration scale where inhibition reaches its midpoint. As a reminder, the MIC is the lowest concentration that inhibits growth of the organism. As to `CC/C=C/C=C/[C@@]1(C)OC(c2ccsc2C)=C(C(=O)OC)C1=O`, the IC50 in the data set on Escherichia coli [1] is 44 µM. For the same molecule, the Activity result in the data set with L929 was “Non-Toxic”. The figures for the MIC in the data set on Escherichia coli [2], with Staphylococcus aureus and in the data set on Candida albicans were 1.7 µg/mL, 1.7 µg/mL and 1.7 µg/mL (≈ 5.11 µM), respectively.
Take `CCCC/C=C/C=C/[C@@]1(C)OC(c2ccsc2C)=C(C(=O)OC)C1=O`: in the data set on L929, the Activity result was “Non-Toxic”. Moreover, the MIC against Escherichia coli [2] and against Staphylococcus aureus was greater than 100 µM in each case.
Consider `CC/C=C/C=C/[C@@]1(C)OC(c2ccc(C)s2)=C(C(=O)OC)C1=O`, for which, in the data set on L929, the Activity result was “Non-Toxic”. In addition, the minimum inhibitory concentration (MIC) in the data set on Escherichia coli [2] and against Staphylococcus aureus was greater than 100 µM each time.
As to `CC/C=C/C=C/[C@@]1(C)OC(c2sccc2C)=C(C(=O)OC)C1=O`, the Activity entry with L929 is on record as “Non-Toxic”. In addition, the MIC in the data set on Escherichia coli [2] and against Staphylococcus aureus was greater than 100 µM throughout.
